Assay results from patent publication US12396997B2, “Methods of treatment with an iboga alkaloid” (priority 2022, dated 2025).
Values joined by “and” are separate entries in the source; they are usually repeats but may differ in a detail not shown here. Equal entries are not always repeated. “Also recorded” adds a separate entry of the source.

Legend:
[1] = tested on: special operations veterans with history of TBI; experiment: CAPS-5 (Clinician-administered PTSD Scale for DSM-5); type: in vivo, human
Procedure: (§1) Thirty, male, navy seal or army special forces veterans, ages 33-58 years (mean 44.5 years), were enrolled. Of the 30 participants, 27 were Caucasian, 1 was Hispanic and 2 were Native American. Body mass index was between 17-35 kg/m^2.
(§2) With subjects in the fasting state, an intravenous infusion of 1 gram of magnesium sulfate was administered 1-2 hours prior to treatment. […] Medical staff (MD, RN, or EMT) were onsite at a ratio of at least 1 staff per 2 patients throughout treatment for monitoring and management, but no specific coaching or psychological support was provided during treatment.
(§3) Post treatment, each subject was assessed four days after treatment, one month after treatment, and, if willing, one year after treatment. The post-treatment assessments conducted at four days and at one month after treatment included neuropsychological testing, measures of PTSD, depression, anxiety, mystical experiences, functional imaging and EEG. Post-treatment assessments conducted at one year after treatment included PTSD, depression, and anxiety measures. […]

[2] = tested on: special operations veterans with history of TBI; experiment: MADRS (Montgomery-Asberg Depression Rating Scale), incl. suicidal ideation item Q10; type: in vivo, human
Procedure: as §2
Post treatment, each subject was assessed four days after treatment, one month after treatment, and, if willing, one year after treatment. The post-treatment assessments conducted at four days and at one month after treatment included neuropsychological testing, measures of PTSD, depression, anxiety, mystical experiences, functional imaging and EEG. Post-treatment assessments conducted at one year after treatment included PTSD, depression, and anxiety measures.
MADRS testing provides an indication of depressive symptoms, CAPS-5 provides an indication of PTSD and SIGH-A provides an indication of anxiety. Collectively these overlap to provide indication of mood, concentration, sleep and tension.
The MADRS is a clinician-administered 10-item scale assessing the severity of depression symptoms. […] A total score of 0-6 indicates no depression, 7-19 mild depression, 20-34 moderate depression, 35-59 severe depression, and 60+ very severe depressive symptoms (Müller, M. J., J. Affect. Disord. 77, 255-260 (2003)).

[3] = tested on: special operations veterans with history of TBI; experiment: Hamilton Anxiety Rating Scale (HAM-A); type: in vivo, human
Procedure: as §1, §2, §3

[4] = tested on: special operations veterans with history of TBI; experiment: Safety monitoring during and after ibogaine treatment (adverse events, QTc by ECG); type: in vivo, human
Procedure: 12 participants (40%) were treated for headache. 7 (23%) for nausea. 3 (10%) for anxiety. 2 (7%) for hypertension, and 1 (3%) for insomnia.
as §2

[5] = tested on: special operations veterans with history of TBI; details: in vivo
[6] = tested on: brain-derived neurotrophic factor (BDNF) and glial cell line-derived neurotrophic factor (GDNF); details: literature; cited from earlier work
cortical neuron = details: in vitro; literature; cited from earlier work
[7] = orally administered to humans; cited from earlier work
people = details: in vivo; cited from earlier work
[8] = following treatment vs baseline

**Q.** Which “Cohen's D on clinician rated psychiatric assessments (PTSD)” value [1, 8] does the source give for `CCC1CC2CC3c4[nH]c5ccc(OC)cc5c4CCN(C2)C13` (centres unmarked) [ibogaine] here?
**A.** Its value is greater than 2.

**Q.** What about the “Remission rate for comorbid PTSD” value ([1]; secondary analyses) of the same molecule?
**A.** Its value is “around 80%”.

**Q.** And the “Suicidal Ideation (MADR Q10), % Reporting” value ([2]; 1-mo. post, mild TBI, N 28, baseline 46%)?
**A.** The value was 7%.

**Q.** And the “Cohen's D on clinician rated psychiatric assessments (depression)” value [2, 8]?
**A.** The value was greater than 2.

**Q.** What about the “Remission rate for comorbid depression” value ([2]; secondary analyses) of the same molecule?
**A.** Its value is “around 80%”.

**Q.** And the “Cohen's D on clinician rated psychiatric assessments (anxiety)” value [3, 8]?
**A.** The value was greater than 2.

**Q.** What about the “Remission rate for comorbid anxiety” value ([3]; secondary analyses) of the same molecule?
**A.** Its value is “around 80%”.

**Q.** What about the “Unexpected or serious treatment-emergent side effects / adverse events” value ([4]; 30 participants, oral ibogaine 12.1±1.2 mg/kg with iv magnesium sulfate, 1.2 mg/kg) of the same molecule?
**A.** Its value is “no unexpected or serious treatment-emergent side effects; also recorded: no serious or unexpected adverse events”.

**Q.** What about the “Concerning prolongation of QTc” value ([4]; continuous 5-lead ECG) of the same molecule?
**A.** Its value is “no instances of a concerning prolongation of QTc”.

**Q.** What about the “Participants treated for insomnia” value ([4]; during oneirogenic effects, 1 participant) of the same molecule?
**A.** The value was 3%.

**Q.** And the “Participants treated for hypertension” value ([4]; during oneirogenic effects, 2 participants)?
**A.** The value was 7%.

**Q.** And the “Participants treated for anxiety” value ([4]; during oneirogenic effects, 3 participants)?
**A.** Its value is 10%.

**Q.** What about the “Participants treated for nausea” value ([4]; during oneirogenic effects, 7 participants) of the same molecule?
**A.** Its value is 23%.

**Q.** What about the “Participants treated for headache” value ([4]; during oneirogenic effects, 12 participants) of the same molecule?
**A.** Its value is 40%.

**Q.** What about the “Declines across any performance domain” value [5] of the same molecule?
**A.** Its value is “No declines”.

**Q.** What about the “Executive functioning effect size D” value [5] of the same molecule?
**A.** Its value is 0.31-1.22.

**Q.** What about the “Performance change in language (semantic fluency)” value [5] of the same molecule?
**A.** The value was “No significant performance changes”.

**Q.** What about the “Phonemic Fluency (D-KEFS Verbal Fluency)” value [5] of the same molecule?
**A.** The value was 64.0 ± 10.1 T score.

**Q.** What about the “Processing speed effect size D” value [5] of the same molecule?
**A.** Its value is 0.97-1.34.

**Q.** What about the “Reaction Time (CPT-3 Reaction Time)” value [5] of the same molecule?
**A.** Its value is 44.1 ± 6.8 T score and 46.4 ± 8.1 T score.

**Q.** And the “Slowing of reaction time effect size D” value [5]?
**A.** Its value is 0.29-0.52.

**Q.** What about the “Sustained Attention (CPT-3 Hit Reaction Time Block Change)” value [5] of the same molecule?
**A.** Its value is 50.8 ± 7.9 T score and 51.2 ± 7.7 T score.

**Q.** And the “Sustained attention accuracy (detection) effect size D” value [5]?
**A.** The value was 0.86-1.05.

**Q.** What about the “Verbal Memory (HVLT-R)” value [5] of the same molecule?
**A.** The value was 49.0 ± 9.2 T score.

**Q.** What about the “Working Memory (WMI (WAIS-IV))” value ([5]; iv) of the same molecule?
**A.** The value was 57.0 ± 9.5 T score.

**Q.** What about the “Transcription of neurotrophic factors BDNF and GDNF” value [6] of the same molecule?
**A.** The value was “increases the transcription”.

**Q.** What about the “Cortical neuron dendritic arbor complexity” value (cortical neuron) of the same molecule?
**A.** The value was “increases cortical neuron dendritic arbor complexity”.

**Q.** What about the half-life [7] of the same molecule?
**A.** The half-life was “about 7.5 hours”.

**Q.** What about the “People who may suffer cardiac arrest when treated” value (people) of the same molecule?
**A.** The value was “Approximately 1 in 300”.
